What was measured:
[1] = test system: Bacteria mixture 3; assay: Repetitive stress test of calcium carbonate slurry with bacteria mixture 3, semiquantitative evaluation (example 6); assay type: cell-based; details: table 6; slurry having a pH of pH 9.4, addition of 0.075% by weight
Procedure: The calcium carbonate slurry was stored at 60° C. for 3 days prior to addition of the guanidinium salts for heat sterilization. The slurry thus treated was then admixed and homogenized with different concentrations of guanidine salts. The slurry prepared in this way was inoculated repeatedly with bacteria strains of practical relevance (bacteria mixture 3).
• Alcaligenes faecalis NCIMB 13145 • Aeromonas hydrophila DSM 6173 • Escherichia coli DSM 13631 • Burkholderia cepacia DSM 9241 • Staphylococcus aureus DSM 799 • Pseudomonas aeruginosa DSM 50071 • Pseudomonas putida DSM 13624
The inoculum was added to the respective sample in each inoculation at 2% (v/w) as a fresh cell suspension in a physiological saline solution (0.9% NaCl). […] The cell count of the inoculum was determined in each case by chamber counting.
In examples 2 to 6, what is called a repetitive stress test with bacteria was conducted by inoculating the samples at particular time intervals repeatedly with a bacteria suspension having a cell count of 10^9/ml (2% v/w) and monitoring the evolution of the bacteria by a semiquantitative evaluation method. After each inoculation, the samples were incubated at 30° C. for 6 days (bacteria mixture 1 and 3) or 7 and 14 days (bacteria mixture 2), and after these periods bacterial infestation was evaluated semiquantitatively in each case. […]

[2] = test system: Bacteria mixture 1 (Pseudomonas genus); assay: Repetitive stress test of paints with bacteria mixture 1, semiquantitative evaluation (examples 2 and 3); assay type: cell-based; details: table 3
Excerpt: Paints 1 to 3 were mixed and homogenized with various concentrations of the guanidinium salts to be tested.
The batches obtained of the paint thus prepared were inoculated repeatedly with a mixture of different wild-type bacterial strains that are of practical relevance with regard to contamination. These bacteria had previously been isolated from commercial emulsion paints containing conventional preservatives (bacteria mixture 1, Pseudomonas genus), which are microbially contaminated in practice, and commercial so-called preservative-free alkaline emulsion paints (bacteria mixture 2, alkaliphilic bacteria of the Nesterenkonia & Alkalibacterium genus), which are microbially contaminated in practice.
• Pseudomonas spp. (Pseudomonas oleovorans group) DSM 33933 • Pseudomonas aeruginosa DSM 33935 • Pseudomonas oleovorans DSM 33936 • Pseudomonas putida DSM 33937 • Pseudomonas aeruginosa DSM 33938
The inoculum was added to the respective sample in each inoculation at 2% (v/w) as a fresh cell suspension in a physiological saline solution (0.9% NaCl). The cell count of the added inoculum in example 1 was 10^5/ml, in examples 2 to 5 10^9/ml, and in example 6 10^6/ml, each in equal portions consisting of the individual bacterial strains. The cell suspension was produced by growing the individual bacteria at 30° C. for 24 h in liquid culture on a shaker. The medium used to grow the bacteria from bacteria mixture 1 was Müller-Hinton liquid medium. Bacteria from bacteria mixture 2 were grown in Müller-Hinton liquid medium that had been adjusted to pH 9.5-9.7 with an alkaline buffer solution beforehand. After growing, the individual liquid cultures were centrifuged, and the cells were resuspended in physiological saline solution. In order to adjust the mixture to the desired cell count, the individual bacteria suspensions, if necessary, were diluted accordingly before being combined with saline solution. The cell count of the inoculum was determined in each case by chamber counting.
In examples 2 to 6, what is called a repetitive stress test with bacteria was conducted by inoculating the samples at particular time intervals repeatedly with a bacteria suspension having a cell count of 10^9/ml (2% v/w) and monitoring the evolution of the bacteria by a semiquantitative evaluation method. After each inoculation, the samples were incubated at 30° C. for 6 days (bacteria mixture 1 and 3) or 7 and 14 days (bacteria mixture 2), and after these periods bacterial infestation was evaluated semiquantitatively in each case. For this purpose, an aliquot was taken from each sample after homogenization using a sterile plastic inoculation loop (10 μl) and streaked evenly on agar plates (bacteria mixture 1 and 3 on tryptic soy agar, bacteria mixture 2 on DSMZ 31 alkaline nutrient agar). The streaked agar plates were then incubated at 30° C. for 48 h (bacteria mixture 1 and 3) or 5 to 7 days (bacteria mixture 2). After incubation, the bacterial colonies grown on the agar plates were visually evaluated and quantified according to the following scheme:
A total of 3 inoculation cycles was performed in each repetitive stress test.
Inoculation 2% (w/v) with Bacteria Mixture 1, 10^9 CFU/ml
2% (w/v) Inoculation with Bacteria Mixture 1, […]

N=C(N)N.N=C(N)N.O=C(O)O [guanidine carbonate]
distinct stabilization: Stabilization of the slurry against microbial infestation [1] | Stabilization of the paint against microbial infestation ([2]; paint 1, pH of pH 9.4, addition of 0.15% by weight) | Stabilization of the paint against microbial infestation ([2]; paint 2, pH of pH 9.1, addition of 0.175% by weight)
